The text below walks through data of ChEMBL document CHEMBL2434843, “Synthesis and evaluation of α-ketotriazoles and α,β-diketotriazoles as inhibitors of Mycobacterium tuberculosis” (Eur J Med Chem, 2013).

Usually MIC stands for the lowest concentration that inhibits growth of the organism.

≈ marks a conversion by molar mass, not a printed value.

Type in all cases: functional
Test [1] relates to Mycobacterium tuberculosis. As to the kind of experiment: Antitubercular activity against multidrug-resistant Mycobacterium tuberculosis IC1 assessed as growth inhibition by BACTEC MGIT 960 method.
In test [2] the test system is Mycobacterium tuberculosis. As to the kind of experiment: Antitubercular activity against multidrug-resistant Mycobacterium tuberculosis IC2 assessed as growth inhibition by BACTEC MGIT 960 method.
Test [3] has as its system Mycobacterium tuberculosis. As to the kind of experiment: Antitubercular activity against multidrug-resistant Mycobacterium tuberculosis IC3 assessed as growth inhibition by BACTEC MGIT 960 method.

With `O=C(C(=O)c1ccc(Cl)cc1Cl)c1cn(Cc2ccccc2)nn1`, the MIC in test [1], in test [2] and in test [3] was 7.6 µM (≈ 2.74 µg/mL) throughout.
As to `COc1ccc(C(=O)C(=O)c2cn(Cc3ccccc3)nn2)cc1`, the MIC in test [1], in test [2] and in test [3] was 6.9 µM (≈ 2.22 µg/mL) throughout.
